According to patent publication US9328138B2 (priority 2011, dated 2016):
pKi: −log10 of the molar value.

Experiments:
[1] = target: T1, HCV genotype 1b (BK) NS3 modified enzyme with a R155K mutation (Hepatitis C virus genotype 1b, UniProt P26663, R1181K); assay: HCV NS3 protease time-resolved fluorescence (TRF) assay, genotype 1b R155K; format: biochemical; details: Ki 1b R155K
T1 construct: HCV genotype 1b (BK) NS3 modified enzyme
Summary of the method: (§1)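 Steps: compound plus NS3/NS4A enzyme for 10 minutes; add peptide substrate to 25 nM; let cleavage proceed 6 hours at room temperature; read product fluorescence (340 nm excitation, 615 nm emission, delayed 400 μs). Enzyme levels gave signal/background 5-20.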

[2] = target: HCV NS3 protease genotype 3a (3A-1) (Hepatitis C virus genotype 3a, UniProt Q81258); assay: HCV NS3 protease time-resolved fluorescence (TRF) assay, genotype 3a; format: biochemical; details: Ki 3a
Summary of the method: as §1

[3] = genotype 1b (BK) NS3 R155K, single value
[4] = first of two values printed in the cell (not explained)
[5] = second of two values printed in the cell (not explained)

Structure (SMILES)	pKi [1, 3]	pKi [2]	pKi [1, 4]	pKi [1, 5]
C=C[C@@H]1C[C@]1(NC(=O)[C@@H]1C[C@@H]2CN1C(=O)[C@H](C(C)(C)C)NC(=O)O[C@@H]1C[C@H]1CCCCCc1c(nc3ccccc3c1OCC1CCN(CCOC)CC1)O2)C(=O)NS(=O)(=O)C1(C)CC1 [Example 228, (1aR,5S,8S,10R,22aR)-5-tert-butyl-N-[(1R,2S)-2-ethenyl-1-{[(1-methylcyclopropyl)sulfonyl]carbamoyl}cyclopropyl]-17-{[1-(2-methoxyethyl)piperidin-4-yl]methoxy}-3,6-dioxo-1,1a,3,4,5,6,9,10,18,19,20,21,22,22a-tetradecahydro-8H-7,10-methanocyclopropa[18,19][1,10,3,6] dioxadiazacyclononadecino[11,12-b]quinoline-8-carboxamide]	9.96	9.33	–	–
C=C[C@@H]1C[C@]1(NC(=O)[C@@H]1C[C@@H]2CN1C(=O)[C@H](C(C)(C)C)NC(=O)O[C@@H]1CCC[C@H]1CC/C=C/Cc1c(nc3ccccc3c1OCCN1CCCCC1)O2)C(=O)NS(=O)(=O)C1CC1 [Example 75, (3aR,7S,10S,12R,21E,24aS)-7-tert-butyl-N-{(1R,2S)-1-[(cyclopropylsulfonyl)carbamoyl]-2-ethenylcyclopropyl}-5,8-dioxo-19-[2-(piperidin-1-yl)ethoxy]-1,2,3,3a,5,6,7,8,11,12,20,23,24,24a-tetradecahydro-10H-9,12-methanocyclopenta[18,19][1,10,3,6]dioxadiazacyclononadecino[11,12-b]quinoline-10-carboxamide]	9.55	8.64	–	–
CC1(S(=O)(=O)NC(=O)[C@@]23C[C@H]2/C=C\CCCCC[C@@H]2NC(=O)O[C@@H]4C[C@H]4CCC/C=C/c4c(nc5ccccc5c4OCCCN4CCCC4)O[C@@H]4C[C@@H](C(=O)N3)N(C4)C2=O)CC1 [Example 303, (1aR,5S,11Z,12aS,13aR,16S,19R,27E, 31aR)-N-[(1-methylcyclopropyl)sulfonyl]-3,15,33-trioxo-26-[3-(pyrrolidin-1-yl)propoxy]-1,1a,3,4,5,6,7,8,9,10,12a,13,15,16,18, 19,29,30,31,31a-icosahydro-5,17:16,19-dimethanodicyclopropa[12,13:28,29] [1,20,3,14,17] dioxatriazacyclononacosino[21,22-b]quinoline-13a(14H)-carboxamide]	9.55	8.44	–	–
C=C[C@@H]1C[C@]1(NC(=O)[C@@H]1C[C@@H]2CN1C(=O)[C@H](C(C)(C)C)NC(=O)O[C@@H]1C[C@H]1CCCCCc1c(nc3ccccc3c1OCCN1CCCCC1)O2)C(=O)NS(=O)(=O)C1(C)CC1 [Example 134, (1aR,5S,8S,10R,22aR)-5-tert-butyl-N-[(1R,2S)-2-ethenyl-1-{[(1-methylcyclopropyl)sulfonyl]carbamoyl}cyclopropyl]-3,6-dioxo-17-[2-(piperidin-1-yl)ethoxy]-1,1a,3,4,5,6,9,10,18,19,20,21,22,22a-tetradeca hydro-8H-7,10-methano cyclopropa[18,19][1,10,3,6]dioxadiazacyclo nonadecino[11,12-b]quinoline-8-carboxamide]	9.25	8.21	–	–
C=C[C@@H]1C[C@]1(NC(=O)[C@@H]1C[C@@H]2CN1C(=O)[C@H](C1CCCCC1)NC(=O)O[C@@H]1C[C@H]1CCCCCc1c(nc3ccccc3c1OC1CC3COCC(C1)N3C(=O)OC(C)(C)C)O2)C(=O)NS(=O)(=O)C1(C)CC1 (stereo partly drawn) [Example 287, tert-butyl 7-{[(1aR,5S,8S,10R,22aR)-5-cyclohexyl-8-{[(1R,2S)-2-ethenyl-1-{[(1-methylcyclopropyl)sulfonyl]carbamoyl}cyclopropyl]carbamoyl}-3,6-dioxo-1,1a,3,4,5,6,9,10,18,19,20,21,22,22a-tetradecahydro-8H-7,10-methanocyclopropa[18,19][1,10,3,6]dioxadiazacyclononadecino[11,12-b]quinolin-17-yl]oxy}-3-oxa-9-azabicyclo[3.3.1]nonane-9-carboxylate]	–	7.24	10.04	8.59
C=C[C@@H]1C[C@]1(NC(=O)[C@@H]1C[C@@H]2CN1C(=O)[C@H](C(C)(C)C)NC(=O)O[C@@H]1C[C@H]1CCCCCc1c(nc3ccccc3c1OCCc1ccncc1)O2)C(=O)NS(=O)(=O)C1(C)CC1 [Example 219, (1aR,5S,8S,10R,22aR)-5-tert-butyl-N-[(1R,2S)-2-ethenyl-1-{[(1-methylcyclopropyl)sulfonyl]carbamoyl}cyclopropyl]-3,6-dioxo-17-[2-(pyridine-4-yl)ethoxy]-1,1a,3,4,5,6,9,10,18,19,20,21,22,22a-tetradecahydro-8H-7,10-methanocyclopropa[18,19][1,10,3,6] dioxadiazacyclononadecino[11,12-b]quinoline-8-carboxamide]	9.92	8.72	–	–
C=C[C@@H]1C[C@]1(NC(=O)[C@@H]1C[C@@H]2CN1C(=O)[C@H](C(C)(C)C)NC(=O)O[C@@H]1CCC[C@H]1CC/C=C/Cc1c(nc3ccccc3c1OCCN1CCOCC1)O2)C(=O)NS(=O)(=O)C1CC1 [Example 51, (3aR,7S,10S,12R,21E,24aS)-7-tert-butyl-N-{(1R,2S)-1-[(cyclopropylsulfonyl)carbamoyl]-2-ethenylcyclopropyl}-19-[2-(morpholin-4-yl)ethoxy]-5,8-dioxo-1,2,3,3a,5,6,7,8,11,12, 20,23,24,24a-tetradeca hydro-10H-9,12-methanocyclopenta[18,19][1,10,3,6] dioxadiazacyclononadecino[11,12-b] quinoline-10-carboxamide]	9.68	8.72	–	–
C=C[C@@H]1C[C@]1(NC(=O)[C@@H]1C[C@@H]2CN1C(=O)[C@H](C1CCCC1)NC(=O)O[C@@H]1CCC[C@H]1CC/C=C/Cc1c(nc3ccccc3c1OCC(=O)N1CCCC1)O2)C(=O)NS(=O)(=O)C1CC1 [Example 67, (3aR,7S,10S,12R,21E,24aS)-7-cyclopentyl-N-{(1R,2S)-1-[(cyclopropylsulfonyl)carbamoyl]-2-ethenylcyclopropyl}-5,8-dioxo-19-[2-oxo-2-(pyrrolidin-1-yl)ethoxy]-1,2,3,3a,5,6,7,8,11,12,20,23,24,24a-tetradecahydro-10H-9,12-methanocyclopenta[18,19][1,10,3,6]dioxadiazacyclononadecino[11,12-b]quinoline-10-carboxamide]	10.09	8.18	–	–
C=C[C@@H]1CC1(NC(=O)[C@@H]1C[C@@H]2CN1C(=O)[C@H](C1CCCCC1)NC(=O)O[C@@H]1C[C@H]1CCCCCc1c(nc3ccccc3c1OC1CCNCC1F)O2)C(=O)NS(=O)(=O)C1(C)CC1 (stereo in doubt) [Example 293, (3S,4R)-4-{[(1aR,5S,8S,10R,22aR)-5-cyclohexyl-8-{[(1R,2S)-2-ethenyl-1-{[(1-methylcyclopropyl)sulfonyl]carbamoyl}cyclopropyl]carbamoyl}-3,6-dioxo-1,1a,3,4,5,6,9,10,18,19,20,21,22,22a-tetradecahydro-8H-7,10-methanocyclopropa[18,19][1,10,3,6]dioxadiazacyclononadecino[11,12-b]quinolin-17-yl]oxy}-3-fluoropiperidinium chloride]	–	8.89	10.54	9.86
